Test results: the NIST ThermoML archive (doi:10.1016/j.jct.2017.01.016)

Test: xn = mol fraction of the nth substance listed
Conditions: 101 kPa, Liquid; for viscosity: Capillary tube (Ostwald / Ubbelohde) method; for speed of sound: Frequency=3 MHz, Linear variable-path acoustic interferometer

Cc1ccc(C)cc1 [1,4-dimethylbenzene] + C1COCCO1
Conditions | speed of sound [m/s] | viscosity [mPa·s]
293.15 K, x2 = 0 | 1328.4 | 0.6505
293.15 K, x2 = 0.0716 | 1326.1 | 0.6921
293.15 K, x2 = 0.1445 | 1324.1 | 0.7358
293.15 K, x2 = 0.2132 | 1322.7 | 0.7779
293.15 K, x2 = 0.2871 | 1321.7 | 0.8239
293.15 K, x2 = 0.3582 | 1321.3 | 0.8691
293.15 K, x2 = 0.4358 | 1321.6 | 0.9192
293.15 K, x2 = 0.5042 | 1322.7 | 0.964
293.15 K, x2 = 0.5846 | 1325 | 1.018
293.15 K, x2 = 0.6543 | 1328.1 | 1.065
293.15 K, x2 = 0.7249 | 1332.5 | 1.113
293.15 K, x2 = 0.7923 | 1338.1 | 1.159
293.15 K, x2 = 0.8623 | 1345.6 | 1.208
293.15 K, x2 = 0.9311 | 1355.2 | 1.257
298.15 K, x2 = 0 | 1307.4 | 0.6115
298.15 K, x2 = 0.0716 | 1305.1 | 0.6484
298.15 K, x2 = 0.1445 | 1303.2 | 0.6871
298.15 K, x2 = 0.2132 | 1301.9 | 0.7245
298.15 K, x2 = 0.2871 | 1300.9 | 0.7654
298.15 K, x2 = 0.3582 | 1300.5 | 0.8054
298.15 K, x2 = 0.4358 | 1300.8 | 0.8499
298.15 K, x2 = 0.5042 | 1301.8 | 0.8898
298.15 K, x2 = 0.5846 | 1304 | 0.9374
298.15 K, x2 = 0.6543 | 1307 | 0.9792
298.15 K, x2 = 0.7249 | 1311.2 | 1.022
298.15 K, x2 = 0.7923 | 1316.6 | 1.064
298.15 K, x2 = 0.8623 | 1323.9 | 1.107
298.15 K, x2 = 0.9311 | 1333.1 | 1.151
303.15 K, x2 = 0 | 1287.3 | 0.5766
303.15 K, x2 = 0.0716 | 1285.1 | 0.6095
303.15 K, x2 = 0.1445 | 1283.2 | 0.644
303.15 K, x2 = 0.2132 | 1281.9 | 0.677
303.15 K, x2 = 0.2871 | 1280.9 | 0.7133
303.15 K, x2 = 0.3582 | 1280.5 | 0.7488
303.15 K, x2 = 0.4358 | 1280.8 | 0.7884
303.15 K, x2 = 0.5042 | 1281.8 | 0.8239
303.15 K, x2 = 0.5846 | 1283.9 | 0.8663
303.15 K, x2 = 0.6543 | 1286.8 | 0.9037
303.15 K, x2 = 0.7249 | 1290.8 | 0.9422
303.15 K, x2 = 0.7923 | 1296 | 0.9792
303.15 K, x2 = 0.8623 | 1303 | 1.018
303.15 K, x2 = 0.9311 | 1311.9 | 1.057
308.15 K, x2 = 0 | 1267.6 | 0.544
308.15 K, x2 = 0.0716 | 1265.4 | 0.5737
308.15 K, x2 = 0.1445 | 1263.6 | 0.605
308.15 K, x2 = 0.2132 | 1262.2 | 0.635
308.15 K, x2 = 0.2871 | 1261.2 | 0.6677
308.15 K, x2 = 0.3582 | 1260.8 | 0.6999
308.15 K, x2 = 0.4358 | 1261 | 0.7358
308.15 K, x2 = 0.5042 | 1261.8 | 0.768
308.15 K, x2 = 0.5846 | 1263.8 | 0.8064
308.15 K, x2 = 0.6543 | 1266.5 | 0.8403
308.15 K, x2 = 0.7249 | 1270.4 | 0.875
308.15 K, x2 = 0.7923 | 1275.4 | 0.9086
308.15 K, x2 = 0.8623 | 1282 | 0.9441
308.15 K, x2 = 0.9311 | 1290.5 | 0.9791
313.15 K, x2 = 0 | 1248.3 | 0.5132
313.15 K, x2 = 0.0716 | 1246.2 | 0.5407
313.15 K, x2 = 0.1445 | 1244.3 | 0.5693
313.15 K, x2 = 0.2132 | 1242.9 | 0.5968
313.15 K, x2 = 0.2871 | 1241.9 | 0.6269
313.15 K, x2 = 0.3582 | 1241.4 | 0.6565
313.15 K, x2 = 0.4358 | 1241.6 | 0.6894
313.15 K, x2 = 0.5042 | 1242.3 | 0.7189
313.15 K, x2 = 0.5846 | 1244.1 | 0.7542
313.15 K, x2 = 0.6543 | 1246.7 | 0.7853
313.15 K, x2 = 0.7249 | 1250.3 | 0.8172
313.15 K, x2 = 0.7923 | 1255 | 0.8479
313.15 K, x2 = 0.8623 | 1261.4 | 0.8802
313.15 K, x2 = 0.9311 | 1269.5 | 0.9126
318.15 K, x2 = 0 | 1229.8 | 0.4862
318.15 K, x2 = 0.0716 | 1227.7 | 0.5116
318.15 K, x2 = 0.1445 | 1225.8 | 0.538
318.15 K, x2 = 0.2132 | 1224.4 | 0.5633
318.15 K, x2 = 0.2871 | 1223.3 | 0.5911
318.15 K, x2 = 0.3582 | 1222.8 | 0.6185
318.15 K, x2 = 0.4358 | 1222.8 | 0.6488
318.15 K, x2 = 0.5042 | 1223.4 | 0.676
318.15 K, x2 = 0.5846 | 1225 | 0.7084
318.15 K, x2 = 0.6543 | 1227.4 | 0.737
318.15 K, x2 = 0.7249 | 1230.8 | 0.7663
318.15 K, x2 = 0.7923 | 1235.2 | 0.7946
318.15 K, x2 = 0.8623 | 1241.3 | 0.8244
318.15 K, x2 = 0.9311 | 1248.9 | 0.854
